Two compounds from patent US20220023274A1, “USE OF A BERBERIS AND RESVERATROL MIXTURE TO CONTROL DYSLIPIDEMIA” (priority 2018, published 2022) can be followed below.

For test [1], the system named is Low-Density lipoprotein Receptor (LDL-R). Briefly: Transcriptional expression of the LDL receptor in hepatocytes in vitro (Example 1, FIG. 1). The following applies: 24 hours, Berberine 5 μg/mL, Resveratrol 3 μM, each applied alone, vs CTRL (no treatments). The format is cell-based. From the text:
It could be said that the concentration tested is bio-equivalent to that of Berberine with a concentration of 50% higher than that administered according to the work of Kong et to 2004. (Kong W, Wei J, Abidi P, Lin M, Inaba S, Li C, Wang Y, Wang Z, Si S, Pan H, 10 Wang S, Wu J, Wang Y, Li Z, Liu J, Jiang J D. Berberine is a novel cholesterol-lowering drug working through a unique mechanism distinct from statins. Nat Med. 2004 December; 10(12):1344-51)).
Resveratrol being without effect alone is therefore a synergy, never observed before. The innovation is therefore in having observed a synergy between resveratrol and berberine with resveratrol which enhances the effects of berberine in the expression of LDL-R. The results are summarized in FIG. 1.

Another test deals with plasma LDL concentration. In words: Case reports of subjects (n=4): plasma LDL concentration, reduction compared to nontreated condition (FIG. 2). The conditions noted are these: n=4 subjects; berberine 500 mg alone or with 48 mg resveratrol (pure, or as 160 mg REVIFAST). The format is in vivo, human. The text has this: Information were also collected from case reports of a number of subjects supplemented in their diet substantially as above.
As it can be seen, when the subjects are supplemented with berberine the levels of LDL cholesterol were reduced. […] It is therefore believed that it is the way in which resveratrol is absorbed that influences the synergistic action of resveratrol to reduce LDL cholesterol by berberine.

A further test has as its system LDL cholesterol. In words: Case report: LDL cholesterol level under dietary supplementation (Example 9). It is filed as in vivo, human. The following applies: The patient, initial LDL cholesterol 3.91 mM; berberine 500 mg for 1 month; Revifast dosage as in examples 2-5. The procedure: […] The patient is […] and is classified borderline for the lipid profile with an LDL cholesterol level of 3.91 mM. In their dietary supplement scheme, they took a berberine 500 mg supplement separately for 1 month, taking lipoprotein levels to 3.4 mM. […] The quantities assumed by […] FG are such that the dosage used is that shown in examples 2-5.

With `Oc1ccc(C=Cc2cc(O)cc(O)c2)cc1` [resveratrol, 3,5,4′-trihydroxystilbene], in test [1], the “transcription of the LDL receptor (effect in words)” value is “no apparent effect”.
Consider `COc1ccc2cc3[n+](cc2c1OC)CCc1cc2c(cc1-3)OCO2` [Berberine], for which the “effect on plasma LDL cholesterol (in words)” value in the test with plasma LDL concentration was “reduced”. Besides, in the test with LDL cholesterol, the “LDL cholesterol level (plasma concentration)” value is 3.4 mM. Moreover, in test [1], the “transcription of the LDL receptor (effect in words)” value is given as “tends to increase”.
